Read-outs that look alike come from different tables or passages of the source.
Target: influenza PA endonuclease (Influenza A virus, UniProt C3W5S0)
Experiment: biochemical
Parameters: species or system Pandemic H1N1 influenza A

SMILES	IC50	LE	IC50 (IC50 value)
COc1cc(C)c(C(=O)O)cc(O)c1=O [Compound 105]	180 nM	0.66	
O=C(O)c1cccc(-c2cc(=O)c(O)c(C(=O)O)[nH]2)c1 [compound 145, 6-(3-carboxyphenyl)-3-hydroxy-4-oxo-1,4-dihydropyridine-2-carboxylic acid]	2 nM		
O=C(O)c1[nH]c(Br)cc(=O)c1O [compound 131, 6-Bromo-3-hydroxy-4-oxo-1,4-dihydropyridine-2-carboxylic acid]			25 nM
O=C(O)c1ccc(-c2cc(=O)c(O)c(C(=O)O)[nH]2)cc1 [compound 144, 6-(4-carboxyphenyl)-3-hydroxy-4-oxo-1,4-dihydropyridine-2-carboxylic acid]	1.6 nM		
O=C(O)c1[nH]c(-c2ccc(-c3nnn[nH]3)cc2)cc(=O)c1O [compound 148, 6-(4-(1H-tetrazol-5-yl)phenyl)-3-hydroxy-4-oxo-1,4-dihydropyridine-2-carboxylic acid]	1.9 nM		
O=C(O)c1ccc(O)c(O)c1 [Compound 107]	220 nM	0.83	
CS(=O)(=O)NCc1cc(=O)c(O)co1 [Compound 30]	4800 ± 700 nM		
CCOC(=O)c1c(C)n(-c2ccc(Oc3ccccc3)cc2)cc(O)c1=O [compound 68, Ethyl 5-hydroxy-2-methyl-4-oxo-1-(4-phenoxyphenyl)-, 4-dihydropyridine-3-carboxylate]	5200 ± 800 nM		
CN(Cc1cc(=O)c(O)co1)c1cccc(F)c1 [Compound 40, 2-(((3-Fluorophenyl)(methyl)amino)methyl)-5-hydroxy-4H-pyran-4-one]	3200 ± 100 nM		
Cc1c(O)c(=O)ccn1C1CCCCC1 [Compound 48, 1-Cyclohexyl-3-hydroxy-2-methylpyridin-4(1H)-one]	14000 ± 3000 nM		
Cc1cc(O)c(=O)c(O)cc1-c1ccccc1 [compound 213, 2,7-Dihydroxy-4-methyl-5-phenylcyclohepta-2,4,6-trien-1-one]	5 nM		
Cc1cc(=O)c(O)cn1C1CCOCC1 [Compound 51]	730 ± 70 nM		
CN(Cc1cc(=O)c(O)co1)c1ccc(F)cc1 [Compound 39, 2-(((4-Fluorophenyl)(methyl)amino)methyl)-5-hydroxy-4H-pyran-4-one]	1800 ± 200 nM		
Cc1c(O)c(=O)ccn1-c1ccccc1 [Compound 45, 3-Hydroxy-2-methyl-1-phenylpyridin-4(1H)-one]	18000 ± 2000 nM		
CNC(=O)c1occc(=O)c1O [A11]	4100 nM		
CNC(=O)c1[nH]ccc(=O)c1O [B4]	13000 nM		
O=c1cc(Br)[nH]c(-c2nnn[nH]2)c1O [compound 133, 6-Bromo-3-hydroxy-2-(1H-tetrazol-5-yl)pyridin-4(1H)-one]	63 nM		
CN(Cc1cc(=O)c(O)co1)c1ccncc1 [Compound 41, 5-Hydroxy-2-((methyl(pyridin-4-yl)amino)methyl)-4H-pyran-4-one]	> 100000 nM		
COc1cccc(CNC(=O)c2c(C)occ(O)c2=O)c1 [Compound 18, 5-Hydroxy-N-(3-methoxybenzyl)-2-methyl-4-oxo-4H-pyran-3-carboxamide]	22100 ± 600 nM		
O=c1cc(CNCc2ccccc2)occ1O [Compound 26, 2-((Benzylamino)methyl)-5-hydroxy-4H-pyran-4-one]	2700 ± 400 nM		
CC(C)c1cccc(=O)c(O)c1 [E4]	11000 nM		
O=c1cc[nH]c(-c2ncco2)c1O [compound 151]	71 nM		
Cc1occ(O)c(=O)c1C(=O)NCCc1ccccc1 [Compound 13, 5-Hydroxy-2-methyl-4-oxo-N-phenethyl-4H-pyran-3-carboxamide]	11300 ± 1200 nM		
O=C(O)c1[nH]c(-c2ccccc2)cc(=O)c1O [compound 142, 3-Hydroxy-4-oxo-6-phenyl-1,4-dihydropyridine-2-carboxylic acid]	5.6 nM		
O=c1cccccc1O [compound 201]	8800 nM		
Cc1cccc(-c2cc(=O)c(O)c(C(=O)O)[nH]2)c1 [compound 146, 3-hydroxy-4-oxo-6-(m-tolyl)-1,4-dihydropyridine-2-carboxylic acid]	4.8 nM		
O=C(O)c1[nH]c(-c2ccc(Oc3ccccc3)cc2)cc(=O)c1O [compound 143, 3-Hydroxy-4-oxo-6-(4-phenoxyphenyl)-1,4-dihydropyridine-2-carboxylic acid]	22 nM		
CCOC(=O)c1c(C)n(-c2ccccc2)cc(O)c1=O [compound 67, Ethyl 5-hydroxy-2-methyl-4-oxo-1-phenyl-1,4-dihydropyridine-3-carboxylate]	5300 ± 400 nM		
